We go through two compounds from article PMC9046208, “Foldamers reveal and validate therapeutic targets associated with toxic α-synuclein self-assembly” (Nature Communications, 2022).

In one assay the target is T1, αS oligomers (Homo sapiens, UniProt P37840).
T1 construct: made in house; host or cells: Escherichia coli BL21(DE3), periplasm
Put plainly: Gel shift assay of αS supernatant (oligomers). Conditions: 70 µM αS, 0.1, 0.2, 0.5 mol eq. ligand, 7 days. Format: biochemical. How it is done:
Supplementary Fig. 8. Gel-shift images of αS (70 µM) incubated in the absence (lane 2) and presence of SK-129 (a) and EGCG (b) at sub-stoichiometric ratios (0.1, 0.2, 0.5 mol eq.) for 7 days at 370C with constant shaking. The solutions of αS in the absence and presence of ligands were centrifuged and the supernatant was used for the gel shift assay. The arrows indicate the formation of various αS structures. The gel shift assay of the supernatant of the αS aggregated […]
fibers. Most of the αS was found in the supernatant as a mo nomer and a dimer in the presence of […]
their formation. The gel experiments were conducted at least two times to confirm the reproducibility of the data.
(1 picture or pasted object on this page, not shown here)

Another assay has as its target T2, αS1 (Homo sapiens, UniProt P37840, DEL6-12).
T2 construct: made in house; host or cells: Escherichia coli BL21(DE3), periplasm
Put plainly: Fluorescence polarization titration, SK-129F with αS1. The format is binding. Conditions: FP. The protocol: (§1) All Fluorescence Polarization (FP) experiments were conducted on a Varian Cary Eclipse fluorometer (Agilent, Santa Clara, CA) equipped with a polarizer. The stock solutions of αS, 1 mM or 100 μM in 1x PBS buffer, were serially added into a solution of 10 μM SK-129F (300 μL in 1x PBS buffer) while stirring in a quartz cuvette (Fireflysci, Staten Island, NY). All FP measurements were conducted in triplicates in 20 mM Tris, 100 mM NaCl, pH 7.2 at 20 °C. The excitation and emissions wavelengths were set at 490 nm and 520 nm, respectively. Each titration was equilibrated for five min before measurements were taken for the next addition of αS solution. The addition of αS solution was continuous until no more change in the FP signal was observed. Similar conditions were used for the titration of various αS mutants and Aβ42 peptide against SK-129F. A stock solution of Aβ42 (1 mM or 100 μM in 1x PBS buffer on ice) was sequentially added to a solution of 10 μM SK-129F (300 μL in 1x PBS buffer) until no more change in the FP signal was observed. The polarization of each point was calculated using Eq. 1:1 FP=I∥−I⊥/I∥+I⊥ Where I∥ is fluorescence intensity parallel to the excitation plane and I⊥ is fluorescence intensity perpendicular to the excitation plane. […]

A further assay has as its target T3, αS3 (Homo sapiens, UniProt P37840, DEL36-45).
T3 construct: Synuclein Residues (1-140); made in house
Put plainly: Fluorescence polarization titration, SK-129F with αS3. The format is binding. Conditions: FP. The protocol:
as §1

A further assay deals with T4, αS2 (Homo sapiens, UniProt P37840, DEL15-23).
T4 construct: made in house
Put plainly: Fluorescence polarization titration, SK-129F with αS2. The format is binding. Conditions: FP. How it is done: as §1

For another assay, the target named is T5, αS (Homo sapiens, UniProt P37840).
T5 construct: made in house; host or cells: Escherichia coli BL21(DE3), periplasm
Put plainly: Fluorescence polarization titration, SK-129F with WT αS. The format is binding. The protocol: All Fluorescence Polarization (FP) experiments were conducted on a Varian Cary Eclipse fluorometer (Agilent, Santa Clara, CA) equipped with a polarizer. The stock solutions of αS, 1 mM or 100 μM in 1x PBS buffer, were serially added into a solution of 10 μM SK-129F (300 μL in 1x PBS buffer) while stirring in a quartz cuvette (Fireflysci, Staten Island, NY). All FP measurements were conducted in triplicates in 20 mM Tris, 100 mM NaCl, pH 7.2 at 20 °C. The excitation and emissions wavelengths were set at 490 nm and 520 nm, respectively. Each titration was equilibrated for five min before measurements were taken for the next addition of αS solution. The addition of αS solution was continuous until no more change in the FP signal was observed. Similar conditions were used for the titration of various αS mutants and Aβ42 peptide against SK-129F. A stock solution of Aβ42 (1 mM or 100 μM in 1x PBS buffer on ice) was sequentially added to a solution of 10 μM SK-129F (300 μL in 1x PBS buffer) until no more change in the FP signal was observed. The polarization of each point was calculated using Eq. 1:1 FP=I∥−I⊥/I∥+I⊥ Where I∥ is fluorescence intensity parallel to the excitation plane and I⊥ is fluorescence intensity perpendicular to the excitation plane. The plot between the relative change in the FP signal against the concentration of the protein (αS/ Aβ42) was fit using one site binding model and Kd between SK-129F and αS (αS mutants/Aβ42) was extracted from the fit. For displacement titration, a 10 μM SK-129F solution was saturated with 10 mole equivalents of αS (300 μL in 1x PBS buffer). To this solution, a stock solution of SK-129 (1 mM or 10 mM) was serially added to displace SK-129F from the αS-SK-129F complex. The solution of SK-129 was continuously added until no more change in the FP signal was observed. A plot between the relative change in the FP signal against the concentration of SK-129 was fit using a one-site competitive binding model and Kd between SK-129 and αS was extracted from the fit.

The next assay has as its system αS4. Put plainly: Fluorescence polarization titration, SK-129F with αS4. The format is binding. Conditions: FP. How it is done: as §1

The structures appear in SMILES notation. “Also recorded” adds a separate entry of the source.

Regarding `O=C(O[C@@H]1Cc2c(O)cc(O)cc2O[C@@H]1c1cc(O)c(O)c(O)c1)c1cc(O)c(O)c(O)c1` [EGCG, Epigallocatechin Gallate], the “αS species in gel shift assay” value on αS oligomers is recorded as “higher-order toxic oligomers; also recorded: higher-order oligomers were observed”.
On to `COC(=O)c1cc(OCC(=O)O)c2cccc(NC(=O)c3cc(OC(C)C)c4cccc(NC(=O)c5cc(OCC(=O)O)c6cccc(NC(=O)c7cc(OC(C)C)c8cccc(NC(=S)NCC(=O)Nc9ccc(-c%10c%11ccc(=O)cc-%11oc%11cc(O)ccc%10%11)c(C(=O)O)c9)c8n7)c6n5)c4n3)c2n1` [SK-129F], for which the “binding affinity weaker than WT αS” value is recorded as 3–4 fold at αS1, ~ 8 fold on αS3, 3–4 fold at αS2 and greater than 10 fold with αS4. Further, the Kd on αS (FP fit, WT αS, trial 1) came to 0.864 µM; on αS (FP fit, WT αS, trial 2), 0.791 µM; on αS (FP fit, WT αS, trial 3), 0.758 µM; at αS (FP titration, 10 μM SK-129F with αS, mean ± s.d., n = 3), 0.81 ± 0.09 µM.
